Reference: ChEMBL document CHEMBL1149643, “Synthesis of novel bicyclo[4.1.0]heptane and bicyclo[3.1.0]hexane derivatives as melanin-concentrating hormone receptor R1 antagonists” (Bioorg Med Chem Lett, 2007)

How the values were obtained:
[1] = target: hERG (KCNH2) (Homo sapiens, UniProt Q12809); test: Inhibition of hERG at 5 ug/ml by rubidium efflux assay; assay type: toxicity
[2] = target: Melanin-concentrating hormone receptor 1 (Homo sapiens, UniProt Q99705); test: Antagonist activity at MCHR1; assay type: functional
[3] = tested on: Mus musculus; test: Ex vivo receptor occupancy at MCHR1 in mouse at 30 mg/kg, po; assay type: functional

Sequence of Melanin-concentrating hormone receptor 1 (Q99705 whole entry): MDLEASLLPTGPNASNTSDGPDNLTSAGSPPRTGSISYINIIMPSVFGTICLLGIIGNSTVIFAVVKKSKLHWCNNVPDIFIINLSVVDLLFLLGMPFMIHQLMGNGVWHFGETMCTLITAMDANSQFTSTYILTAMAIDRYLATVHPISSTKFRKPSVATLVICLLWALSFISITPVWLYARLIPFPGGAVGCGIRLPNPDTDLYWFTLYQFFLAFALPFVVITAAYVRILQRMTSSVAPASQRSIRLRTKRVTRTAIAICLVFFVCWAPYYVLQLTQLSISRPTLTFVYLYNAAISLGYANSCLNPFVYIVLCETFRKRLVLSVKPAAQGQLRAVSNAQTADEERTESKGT
Sequence of hERG (KCNH2) (Q12809 whole entry): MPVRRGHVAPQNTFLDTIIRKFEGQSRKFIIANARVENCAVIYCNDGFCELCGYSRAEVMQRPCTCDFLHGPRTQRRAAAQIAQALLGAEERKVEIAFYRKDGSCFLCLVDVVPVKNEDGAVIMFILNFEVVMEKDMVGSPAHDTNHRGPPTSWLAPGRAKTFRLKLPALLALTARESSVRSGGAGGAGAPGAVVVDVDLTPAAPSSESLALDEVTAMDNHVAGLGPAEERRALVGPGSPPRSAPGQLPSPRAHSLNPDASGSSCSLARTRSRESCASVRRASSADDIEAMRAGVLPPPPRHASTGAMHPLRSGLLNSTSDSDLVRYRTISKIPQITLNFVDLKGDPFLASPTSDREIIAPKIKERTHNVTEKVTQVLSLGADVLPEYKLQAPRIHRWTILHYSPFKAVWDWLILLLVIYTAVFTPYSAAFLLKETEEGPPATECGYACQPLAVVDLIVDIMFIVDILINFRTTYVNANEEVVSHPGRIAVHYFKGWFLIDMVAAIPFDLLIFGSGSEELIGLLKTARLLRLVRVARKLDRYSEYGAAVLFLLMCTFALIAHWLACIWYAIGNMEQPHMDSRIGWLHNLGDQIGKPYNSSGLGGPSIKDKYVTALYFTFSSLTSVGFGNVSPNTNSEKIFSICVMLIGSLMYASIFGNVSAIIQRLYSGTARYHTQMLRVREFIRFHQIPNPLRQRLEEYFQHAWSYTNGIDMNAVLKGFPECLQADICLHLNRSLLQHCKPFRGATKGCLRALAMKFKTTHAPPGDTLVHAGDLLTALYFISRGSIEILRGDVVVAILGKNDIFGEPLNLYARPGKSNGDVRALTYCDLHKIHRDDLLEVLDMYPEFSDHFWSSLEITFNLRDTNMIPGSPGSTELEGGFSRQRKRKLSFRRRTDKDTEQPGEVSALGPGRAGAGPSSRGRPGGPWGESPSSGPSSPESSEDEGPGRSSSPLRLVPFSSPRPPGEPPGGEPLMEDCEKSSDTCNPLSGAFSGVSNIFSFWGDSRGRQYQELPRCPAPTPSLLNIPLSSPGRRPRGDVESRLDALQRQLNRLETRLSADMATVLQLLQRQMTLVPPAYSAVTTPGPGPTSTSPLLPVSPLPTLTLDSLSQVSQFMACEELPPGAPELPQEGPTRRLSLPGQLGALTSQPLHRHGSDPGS

Ki [2] [nM] | Compound | inhibition at 5 ug/ml [1] [%] | inhibition in vivo at 30 mg/kg [3] [%]
– | N#Cc1cccc([C@]23CC[C@@H](N(CCN4CC[C@@H](O)C4)C(=O)Nc4ccc(F)c(Cl)c4)CC2C3)c1 (some centres not stated) | 80 | –
22 | N#Cc1cccc([C@]23CC[C@@H](N(CCCN4CC[C@@H](O)C4)C(=O)Nc4ccc(F)c(Cl)c4)[C@H]2C3)c1 | 86 | –
107 | NCc1ncc([C@]23CC[C@@H](N(CCN4CCCC4)C(=O)Nc4ccc(F)c(C(F)(F)F)c4)C2C3)s1 (some centres not stated) | 16 | –
99 | NCc1ncc([C@]23CC[C@@H](N(CCN4CC[C@H](O)C4)C(=O)Nc4ccc(F)c(C(F)(F)F)c4)C2C3)s1 (some centres not stated) | 8 | –
45 | NCc1ncc([C@]23CC[C@@H](N(CCCN4CC[C@H](O)C4)C(=O)Nc4ccc(F)c(C(F)(F)F)c4)C2C3)s1 (some centres not stated) | -4 | –
17 | NCc1ncc([C@]23CC[C@@H](N(CCCN4CC[C@@H](O)C4)C(=O)Nc4ccc(F)c(C(F)(F)F)c4)C2C3)s1 (some centres not stated) | -4 | –
13.1 | C[C@@H]1CN(CCCN(C(=O)Nc2cc(Cl)nc(Cl)c2)[C@@H]2CC[C@]3(c4cnc(CN)s4)CC23)[C@@H](C)CN1 (some centres not stated) | 3 | –
73 | NCc1ncc([C@]23CC[C@@H](N(CCCN4CC5CC4CN5)C(=O)Nc4ccc(F)c(C(F)(F)F)c4)C2C3)s1 (some centres not stated) | 14 | –
6.6 | NCc1ncc([C@]23CC[C@H](N(CCCN4CC[C@@H](O)C4)C(=O)Nc4ccc(F)c(C(F)(F)F)c4)[C@H]2C3)s1 | 8 | –
6.1 | C[C@@H]1CN(CCCN(C(=O)Nc2cc(Cl)nc(Cl)c2)[C@H]2CC[C@]3(c4cnc(CN)s4)C[C@H]23)[C@@H](C)CN1 | -12 | 16
– | NCc1ncc(C2=CCC(N(CCN3CCCC3)C(=O)Nc3ccc(F)c(Cl)c3)CC2)s1 (configuration not stated) | 10 | 88
117 | C[C@@H]1CN(CCCN(C(=O)Nc2cc(Cl)nc(Cl)c2)[C@H]2CC[C@@]3(c4cnc(CN)s4)C[C@@H]23)[C@@H](C)CN1 | -13 | 20
4 | C[C@@H]1CN[C@@H](C)CN1CCCN(C(=O)Nc1cc(Cl)nc(Cl)c1)[C@H]1CC[C@]2(c3cnc(CN)s3)C[C@H]12 | 22 | 39
19 | C[C@@H]1CN(CCCN(C(=O)Nc2ccc(F)c(C(F)(F)F)c2)[C@@H]2CC[C@]3(c4cnc(CN)s4)CC23)[C@@H](C)CN1 (some centres not stated) | -8 | –
431 | NCc1cnc([C@]23CC[C@@H](N(CCN4CCCC4)C(=O)Nc4ccc(F)c(C(F)(F)F)c4)CC2C3)s1 (some centres not stated) | 19 | –
167 | NCc1ncc([C@@]23CC[C@H](N(CCCN4CC[C@@H](O)C4)C(=O)Nc4ccc(F)c(C(F)(F)F)c4)[C@@H]2C3)s1 | 6 | –
171 | C[C@@H]1CN[C@@H](C)CN1CCCN(C(=O)Nc1cc(Cl)nc(Cl)c1)[C@H]1CC[C@@]2(c3cnc(CN)s3)C[C@@H]12 | 17 | 26
